Target: T1, SIRT1 (Homo sapiens, UniProt Q96EB6)
T1 sequence (Q96EB6 1-747): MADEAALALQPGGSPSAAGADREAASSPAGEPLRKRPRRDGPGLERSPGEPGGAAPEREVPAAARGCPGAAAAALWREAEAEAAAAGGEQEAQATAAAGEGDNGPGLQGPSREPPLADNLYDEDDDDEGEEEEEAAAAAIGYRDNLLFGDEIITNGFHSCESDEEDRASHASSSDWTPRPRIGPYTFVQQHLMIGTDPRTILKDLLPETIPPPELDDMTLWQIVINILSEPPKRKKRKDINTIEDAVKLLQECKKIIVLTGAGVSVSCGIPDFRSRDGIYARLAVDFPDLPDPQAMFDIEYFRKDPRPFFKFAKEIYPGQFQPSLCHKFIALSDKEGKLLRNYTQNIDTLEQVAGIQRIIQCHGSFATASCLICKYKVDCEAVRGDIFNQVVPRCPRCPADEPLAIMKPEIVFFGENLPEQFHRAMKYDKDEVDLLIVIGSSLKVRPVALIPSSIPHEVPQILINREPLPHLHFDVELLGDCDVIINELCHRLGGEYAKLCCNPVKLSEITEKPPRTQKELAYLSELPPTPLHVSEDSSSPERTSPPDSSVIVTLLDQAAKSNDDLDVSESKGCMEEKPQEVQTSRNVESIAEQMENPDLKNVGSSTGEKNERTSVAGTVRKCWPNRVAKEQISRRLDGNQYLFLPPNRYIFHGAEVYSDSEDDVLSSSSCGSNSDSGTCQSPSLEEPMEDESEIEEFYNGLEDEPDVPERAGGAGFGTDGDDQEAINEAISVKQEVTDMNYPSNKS
Test: Mass spectrometry based assay to identify modulators of SIRT1 activity (deacetylation of p53-based acetylated peptide substrate)
Assay type: biochemical
Conditions: 10 nM SIRT1, 0.5 μM peptide substrate, 120 μM βNAD+, 25 minutes at 25° C.; for EC1.5: SIRT1 activation
From the text: A mass spectrometry based assay was used to identify modulators of SIRT1 activity. The mass spectrometry based assay utilizes a peptide having 20 amino acid residues as follows: Ac-EE-K(biotin)-GQSTSSHSK(Ac)NleSTEG-K(5TMR)-EE-NH2 (SEQ ID NO: 1) wherein K(Ac) is an acetylated lysine residue and Nle is a norleucine. The peptide is labeled with the fluorophore 5TMR (excitation 540 nm/emission 580 nm) at the C-terminus. The sequence of the peptide substrate is based on p53 with several modifications. In addition, the methionine residue naturally present in the sequence was replaced with the norleucine because the methionine may be susceptible to oxidation during synthesis and purification.
The mass spectrometry assay is conducted as follows: 0.5 μM peptide substrate and 120 μM βNAD^+ is incubated with 10 nM SIRT1 for 25 minutes at 25° C. in a reaction buffer (50 mM Tris-acetate pH 8, 137 mM NaCl, 2.7 mM KCl, 1 mM MgCl2, 5 mM DTT, 0.05% BSA). Test compounds may be added to the reaction as described above. The SirT1 gene is cloned into a T7-promoter containing vector and transformed into BL21(DE3). After the 25 minute incubation with SIRT1, 10 μL of 10% formic acid is added to stop the reaction. Reactions are sealed and frozen for later mass spec analysis. Determination of the mass of the substrate peptide allows for precise determination of the degree of acetylation (i.e. starting material) as compared to deacetylated peptide (product).
A control for inhibition of sirtuin activity is conducted by adding 1 μL of 500 mM nicotinamide as a negative control at the start of the reaction (e.g., permits determination of maximum sirtuin inhibition). A control for activation of sirtuin activity is conducted using 10 nM of sirtuin protein, with 1 μL of DMSO in place of compound, to determine the amount of deacetylation of the substrate at a given timepoint within the linear range of the assay. This timepoint is the same as that used for test compounds and, within the linear range, the endpoint represents a change in velocity.
For the above assay, SIRT1 protein was expressed and purified as follows. The SirT1 gene was cloned into a T7-promoter containing vector and transformed into BL21(DE3). The protein was expressed by induction with 1 mM IPTG as an N-terminal His-tag fusion protein at 18° C. overnight and harvested at 30,000×g. Cells were lysed with lysozyme in lysis buffer (50 mM Tris-HCl, 2 mM Tris[2-carboxyethyl]phosphine (TCEP), 10 μM ZnCl2, 200 mM NaCl) and further treated with sonication for 10 min for complete lysis. The protein was purified over a Ni-NTA column (Amersham) and fractions containing pure protein were pooled, concentrated and run over a sizing column (Sephadex S200 26/60 global). The peak containing soluble protein was collected and run on an Ion-exchange column (MonoQ). Gradient elution (200 mM-500 mM NaCl) yielded pure protein. This protein was concentrated and dialyzed against dialysis buffer (20 mM Tris-HCl, 2 mM TCEP) overnight. The protein was aliquoted and frozen at −80° C. until further use.
Sirtuin modulating compounds that activated SIRT1 were identified using the assay described above and are shown below in Table 1. The EC1-5 values for the activating compounds are represented by A′ (EC1.5<250 nM), A (EC1.5≧250 nM and ≦1 uM), B (EC1.5>1 and ≦10 uM), or C (EC1.5>10 uM). The percent maximum fold activation is represented by A (Fold activation≧300%), B (Fold Activation≧150% and <300%), or C (Fold Activation<150%).

SMILES | FOLD ACT. (percent maximum fold activation) | EC1.5
CCN(CCN(C)C)c1cc(C(=O)Nc2ccccc2-c2nc3cccnc3s2)nc(-c2ccccc2)n1 [Compound 146] | A (Fold activation≧300%) | A′ (EC1.5<250 nM)
Cc1ccc(-c2nc(NCCN(C)C)cc(C(=O)Nc3ccccc3-c3nc4cccnc4s3)n2)cc1 [Compound 111] | A (Fold activation≧300%) | A′ (EC1.5<250 nM)
O=C(Nc1ccccc1-c1nc2cccnc2s1)c1cc(OC2CNC2)cc(-c2ccccc2)n1 [Compound 6] | A (Fold activation≧300%) | A (EC1.5≧250 nM and ≦1 uM)
O=C(Nc1ccccc1-c1nc2cccnc2s1)c1cc(OCCCCO)nc(-c2ccccc2)n1 [Compound 103] | B (Fold Activation≧150% and <300%) | C (EC1.5>10 uM)
O=C(Nc1ccccc1-c1nc2ccncc2s1)c1cc(NCc2cccnc2)nc(-c2ccccc2)n1 [Compound 31] | B (Fold Activation≧150% and <300%) | A (EC1.5≧250 nM and ≦1 uM)
O=C(Nc1ccccc1-c1nc2cccnc2s1)c1cc(NC(CO)C(=O)O)nc(-c2ccccc2)n1 (stereo not drawn) [Compound 92] | A (Fold activation≧300%) | B (EC1.5>1 and ≦10 uM)
O=C(Nc1ccccc1-c1nc2cccnc2s1)c1cc(NCCNc2ccccc2)nc(-c2ccccc2)n1 [Compound 60] | C (Fold Activation<150%) | C (EC1.5>10 uM)
O=C(Nc1ccccc1-c1nc2cccnc2s1)c1cc(OCCN2CCS(=O)(=O)CC2)cc(-c2ccccc2)n1 [Compound 7] | A (Fold activation≧300%) | A′ (EC1.5<250 nM)
COCCNc1cc(C(=O)Nc2ccccc2-c2nc3ccncc3s2)nc(-c2ccccc2)n1 [Compound 27] | A (Fold activation≧300%) | A (EC1.5≧250 nM and ≦1 uM)
O=C(Nc1ccccc1-c1nc2ccncc2s1)c1cc(NCCN2CCOCC2)nc(-c2ccccc2)n1 [Compound 30] | A (Fold activation≧300%) | A (EC1.5≧250 nM and ≦1 uM)
COCCN(CCOC)c1cc(C(=O)Nc2ccccc2-c2nc3cccnc3s2)nc(-c2ccccc2)n1 [Compound 68] | A (Fold activation≧300%) | A′ (EC1.5<250 nM)
O=C(Nc1ccccc1-c1nc2cccnc2s1)c1cc(NCc2ccccn2)nc(-c2ccccc2)n1 [Compound 55] | B (Fold Activation≧150% and <300%) | A (EC1.5≧250 nM and ≦1 uM)
O=C(Nc1ccccc1-c1nc2cccnc2s1)c1cc(OC[C@@H](O)CO)cc(-c2ccccc2)n1 [Compound 127] | A (Fold activation≧300%) | A (EC1.5≧250 nM and ≦1 uM)
O=C(Nc1ccccc1-c1nc2cccnc2s1)c1cc(OCCN2CCOCC2)cc(-c2ccccc2)n1 [Compound 13] | A (Fold activation≧300%) | A (EC1.5≧250 nM and ≦1 uM)

The next lines start with the values.

FOLD ACT. (percent maximum fold activation) | EC1.5 | SMILES
A (Fold activation≧300%) | A′ (EC1.5<250 nM) | O=C(Nc1ccccc1-c1nc2cccnc2s1)c1cc(NC[C@H](O)CO)nc(-c2ccccc2)n1 [Compound 105]
A (Fold activation≧300%) | A′ (EC1.5<250 nM) | CN1CCC(Nc2cc(C(=O)Nc3ccccc3-c3nc4cccnc4s3)nc(-c3ccccc3)n2)CC1 [Compound 99]
A (Fold activation≧300%) | A (EC1.5≧250 nM and ≦1 uM) | O=C(Nc1ccccc1-c1nc2cccnc2s1)c1cc(N2CCN3CCC[C@H]3C2)nc(-c2ccccc2)n1 [Compound 120]
A (Fold activation≧300%) | A′ (EC1.5<250 nM) | NCCCOc1cc(C(=O)Nc2ccccc2-c2nc3cccnc3s2)nc(-c2ccccc2)n1 [Compound 76]
B (Fold Activation≧150% and <300%) | B (EC1.5>1 and ≦10 uM) | CSCCNc1cc(C(=O)Nc2ccccc2-c2nc3cccnc3s2)nc(-c2ccccc2)n1 [Compound 45]
A (Fold activation≧300%) | A′ (EC1.5<250 nM) | CC(=O)N1CCC(Nc2cc(C(=O)Nc3ccccc3-c3nc4cccnc4s3)nc(-c3ccccc3)n2)CC1 [Compound 116]
A (Fold activation≧300%) | A′ (EC1.5<250 nM) | CC(C)CN1CCC(Nc2cc(C(=O)Nc3ccccc3-c3nc4cccnc4s3)nc(-c3ccccc3)n2)CC1 [Compound 140]
A (Fold activation≧300%) | A′ (EC1.5<250 nM) | O=C(Nc1ccccc1-c1nc2cccnc2s1)c1cc(NC2CCNCC2)nc(-c2ccccc2)n1 [Compound 49]
A (Fold activation≧300%) | A′ (EC1.5<250 nM) | CN(C)CCNc1cc(C(=O)Nc2ccccc2-c2nc3cccnc3s2)nc(-c2ccccc2)n1 [Compound 9]
A (Fold activation≧300%) | A (EC1.5≧250 nM and ≦1 uM) | CCN1CCN(c2cc(C(=O)Nc3ccccc3-c3nc4cccnc4s3)nc(-c3ccccc3)n2)CC1=O [Compound 150]
B (Fold Activation≧150% and <300%) | B (EC1.5>1 and ≦10 uM) | CCSCCNc1cc(C(=O)Nc2ccccc2-c2nc3cccnc3s2)nc(-c2ccccc2)n1 [Compound 73]
A (Fold activation≧300%) | A′ (EC1.5<250 nM) | O=C(Nc1ccccc1-c1nc2cccnc2s1)c1cc(NC2CCOC2=O)nc(-c2ccccc2)n1 (stereo not drawn) [Compound 91]
B (Fold Activation≧150% and <300%) | B (EC1.5>1 and ≦10 uM) | CN(C)c1cc(C(=O)Nc2ccccc2-c2nc3cccnc3s2)nc(-c2ccccc2)n1 [Compound 38]
C (Fold Activation<150%) | C (EC1.5>10 uM) | O=C(Nc1ccccc1-c1nc2cccnc2s1)c1cc(NC2CCN(c3ccccn3)CC2)nc(-c2ccccc2)n1 [Compound 115]
B (Fold Activation≧150% and <300%) | A′ (EC1.5<250 nM) | O=C(Nc1ccccc1-c1nc2cccnc2s1)c1cc(N2CCOCC2)nc(-c2ccccc2)n1 [Compound 2]
B (Fold Activation≧150% and <300%) | A′ (EC1.5<250 nM) | CC(C)N1CCN(c2cc(C(=O)Nc3ccccc3-c3nc4cccnc4s3)nc(-c3ccccc3)n2)CC1.Cl [Compound 65]

From patent publication US20110009381A1, “SOLUBILIZED THIAZOLOPYRIDINES” (Sirtis Pharmaceuticals, Inc., priority 2007, published 2011)
